Data reported in patent US4542137A, “Alkylaminodesoxy-1.4;3.6-dianhydrohexitol nitrates substituted by purine bases and pharmaceutical compositions” (priority 1980, dated 1985).

Test system: mongrel dogs
Assay: circulatory pharmacological effectiveness on narcotised dogs, intravenous
Assay type: in vivo, dog
[1] = dog i.v. ISDN/9c 1, 1d 0.5 mg/kg, 40 min
[2] = dog i.v. ISDN/9c 1, 1d 0.5 mg/kg, 50 min
[3] = dog i.v. ISDN/9c 1, 1d 0.5 mg/kg, 60 min
[4] = dog i.v. ISDN/9c 1, 1d 0.5 mg/kg, 90 min
[5] = dog i.v. ISDN/9c 1, 1d 0.5 mg/kg, 120 min
[6] = dog i.v. ISDN/9c 1, 1d 0.5 mg/kg, 150 min
[7] = dog i.v. ISDN/9c 1, 1d 0.5 mg/kg, 180 min
[8] = dog i.v., before administration (v)

Structure (SMILES): CN(CCCn1cnc2c1c(=O)n(C)c(=O)n2C)[C@H]1CO[C@H]2[C@@H]1OC[C@@H]2O[N+](=O)[O-] [Example 9c, 5-[N-Methyl-N-(3-theophyllin-7-ylpropyl)-amino]-5-desoxy-1.4;3.6-dianhydro-L-iditol 2-nitrate]
- BFFem: blood flow in the A. femoralis referred to 20 kg body weight [1]: 44.2 mL/min
- HLL: heart capacity left, referred to 20 kg body weight [1]: 0.60 W
- HLR: heart capacity right, referred to 20 kg body weight [1]: 63.2 mW
- HZV: heart minute volume, referred to 20 kg body weight [1]: 2.71 L/min
- LVEDP: end diastolic pressure in the left ventricle [1]: 5.62 mm.Hg
- SV: beat volume, referred to 20 kg body weight [1]: 24.9 mL
- WAP: pulmonalis resistance, referred to 20 kg body weight [1]: 0.30 U
- WFem: moralis resistance, referred to 20 kg body weight [1]: 0.32 KU
- WTP: total peripheral resistance, referred to 20 kg body weight [1]: 5.05 U
- dp/dt: rate of pressure increase in the left ventricle [1]: 2203.1 mm.Hg/sec
- APdiast: diastolic aorta pressure [2]: 88.2 mm.Hg
- APsyst: systolic aorta pressure [2]: 142.5 mm.Hg
- BFFem: blood flow in the A. femoralis referred to 20 kg body weight [2]: 26.6 mL/min
- HF: heart frequency [2]: 105.5
- HLL: heart capacity left, referred to 20 kg body weight [2]: 0.61 W
- HLR: heart capacity right, referred to 20 kg body weight [2]: 61.7 mW
- HZV: heart minute volume, referred to 20 kg body weight [2]: 2.68 L/min
- LVEDP: end diastolic pressure in the left ventricle [2]: 6.19 mm.Hg
- SV: beat volume, referred to 20 kg body weight [2]: 25.5 mL
- WFem: moralis resistance, referred to 20 kg body weight [2]: 0.31 KU
- WTP: total peripheral resistance, referred to 20 kg body weight [2]: 5.24 U
- dp/dt: rate of pressure increase in the left ventricle [2]: 2165.6 mm.Hg/sec
- APdiast: diastolic aorta pressure [3]: 88.2 mm.Hg
- APsyst: systolic aorta pressure [3]: 144.7 mm.Hg
- BFFem: blood flow in the A. femoralis referred to 20 kg body weight [3]: 45.8 mL/min
- HF: heart frequency [3]: 103.2
- HLL: heart capacity left, referred to 20 kg body weight [3]: 0.59 W
- HLR: heart capacity right, referred to 20 kg body weight [3]: 59.1 mW
- HZV: heart minute volume, referred to 20 kg body weight [3]: 2.59 L/min
- SV: beat volume, referred to 20 kg body weight [3]: 25.1 mL
- WAP: pulmonalis resistance, referred to 20 kg body weight [3]: 0.27 U
- WFem: moralis resistance, referred to 20 kg body weight [3]: 0.32 KU
- WTP: total peripheral resistance, referred to 20 kg body weight [3]: 5.48 U
- dp/dt: rate of pressure increase in the left ventricle [3]: 2109.4 mm.Hg/sec
- APdiast: diastolic aorta pressure [4]: 90.9 mm.Hg
- APsyst: systolic aorta pressure [4]: 148.1 mm.Hg
- BFFem: blood flow in the A. femoralis referred to 20 kg body weight [4]: 41.7 mL/min
- HF: heart frequency [4]: 98.0
- HLL: heart capacity left, referred to 20 kg body weight [4]: 0.56 W
- HLR: heart capacity right, referred to 20 kg body weight [4]: 59.2 mW
- HZV: heart minute volume, referred to 20 kg body weight [4]: 2.42 L/min
- SV: beat volume, referred to 20 kg body weight [4]: 24.8 mL
- WAP: pulmonalis resistance, referred to 20 kg body weight [4]: 0.33 U
- WFem: moralis resistance, referred to 20 kg body weight [4]: 0.36 KU
- WTP: total peripheral resistance, referred to 20 kg body weight [4]: 6.00 U
- dp/dt: rate of pressure increase in the left ventricle [4]: 1987.5 mm.Hg/sec
- APdiast: diastolic aorta pressure [5]: 90.9 mm.Hg
- APsyst: systolic aorta pressure [5]: 150.0 mm.Hg
- BFFem: blood flow in the A. femoralis referred to 20 kg body weight [5]: 39.9 mL/min
- HF: heart frequency [5]: 96.7
- HLL: heart capacity left, referred to 20 kg body weight [5]: 0.55 W
- HLR: heart capacity right, referred to 20 kg body weight [5]: 60.8 mW
- HZV: heart minute volume, referred to 20 kg body weight [5]: 2.39 L/min
- LVEDP: end diastolic pressure in the left ventricle [5]: 7.73 mm.Hg
- SV: beat volume, referred to 20 kg body weight [5]: 24.7 mL
- WAP: pulmonalis resistance, referred to 20 kg body weight [5]: 0.35 U
- WFem: moralis resistance, referred to 20 kg body weight [5]: 0.38 KU
- WTP: total peripheral resistance, referred to 20 kg body weight [5]: 6.07 U
- dp/dt: rate of pressure increase in the left ventricle [5]: 1837.5 mm.Hg/sec
- APdiast: diastolic aorta pressure [6]: 88.7 mm.Hg
- APsyst: systolic aorta pressure [6]: 148.7 mm.Hg
- BFFem: blood flow in the A. femoralis referred to 20 kg body weight [6]: 39.0 mL/min
- HF: heart frequency [6]: 98.2
- HLL: heart capacity left, referred to 20 kg body weight [6]: 0.54 W
- HLR: heart capacity right, referred to 20 kg body weight [6]: 64.4 mW
- HZV: heart minute volume, referred to 20 kg body weight [6]: 2.38 L/min
- LVEDP: end diastolic pressure in the left ventricle [6]: 7.87 mm.Hg
- SV: beat volume, referred to 20 kg body weight [6]: 24.3 mL
- WAP: pulmonalis resistance, referred to 20 kg body weight [6]: 0.40 U
- WFem: moralis resistance, referred to 20 kg body weight [6]: 0.37 KU
- WTP: total peripheral resistance, referred to 20 kg body weight [6]: 5.92 U
- dp/dt: rate of pressure increase in the left ventricle [6]: 1809.4 mm.Hg/sec
- APdiast: diastolic aorta pressure [7]: 87.2 mm.Hg
- APsyst: systolic aorta pressure [7]: 148.1 mm.Hg
- BFFem: blood flow in the A. femoralis referred to 20 kg body weight [7]: 42.8 mL/min
- HF: heart frequency [7]: 100.0
- HLL: heart capacity left, referred to 20 kg body weight [7]: 0.55 W
- HLR: heart capacity right, referred to 20 kg body weight [7]: 67.5 mW
- HZV: heart minute volume, referred to 20 kg body weight [7]: 2.47 L/min
- LVEDP: end diastolic pressure in the left ventricle [7]: 7.87 mm.Hg
- SV: beat volume, referred to 20 kg body weight [7]: 24.8 mL
- WAP: pulmonalis resistance, referred to 20 kg body weight [7]: 0.41 U
- WFem: moralis resistance, referred to 20 kg body weight [7]: 0.33 KU
- WTP: total peripheral resistance, referred to 20 kg body weight [7]: 5.61 U
- dp/dt: rate of pressure increase in the left ventricle [7]: 1743.7 mm.Hg/sec
- APdiast: diastolic aorta pressure [8]: 78.7 mm.Hg
- APsyst: systolic aorta pressure [8]: 147.2 mm.Hg
- BFFem: blood flow in the A. femoralis referred to 20 kg body weight [8]: 48.0 mL/min
- HF: heart frequency [8]: 102.5
- HLL: heart capacity left, referred to 20 kg body weight [8]: 0.56 W
- HLR: heart capacity right, referred to 20 kg body weight [8]: 63.08 mW
- HZV: heart minute volume, referred to 20 kg body weight [8]: 2.62 L/min
- PAP: average pressure in the A. pulmonalis [8]: 13.6 mm.Hg
- WFem: moralis resistance, referred to 20 kg body weight [8]: 0.29 KU
- WTP: total peripheral resistance, referred to 20 kg body weight [8]: 5.15 U
- dp/dt: rate of pressure increase in the left ventricle [8]: 1837.5 mm.Hg/sec
- BFFem: blood flow in the A. femoralis referred to 20 kg body weight (dog, in vivo): 41.9 mL/min
- PRV: pressure in the right atrium (dog, in vivo, iv): 3.0
- LVEDP: end diastolic pressure in the left ventricle (iv): 7.60 mm.Hg
- SV: beat volume, referred to 20 kg body weight (iv): 25.9 mL
- WAP: pulmonalis resistance, referred to 20 kg body weight (iv): 0.29 U
